Measured values published in US5723494A, “Derivatives of glutamic and aspartic acids, a method of preparing them, and their use as drugs for enhancing memory and learning” (priority 1993, dated 1998).
Where two headings read alike, the source gives them in different places.

How the values were obtained:
[1] = Antiamnesic activity in the mouse (step-down passive avoidance, amnesia induced by ECS); type: in vivo, mouse (CD1 male)
Description: 1) Antiamnesic activity in the mouse (step-down passive avoidance)
An electroconvulsive shock (ECS) produces retrograde amnesia in the test animal if applied immediately after the training received, for example, a harmful stimulus of a suitable intensity.
The object of the experiment was to study the effects of the compounds of the invention in antagonizing the amnesic effect of an ECS on the short-term memory consolidation process.
CD1 male mice which weighed about 30-35 g, and had not fasted were used. The equipment used was a rectangular plexiglass cage (21×21×40cm) with an electrifiable grid floor and a wooden cube (4×4×4 cm) fixed in the centre of the cage. The animals were treated orally with the product under test 60 minutes before the training.
The mouse was placed delicately on the wooden cube and the time it took to descend to the grid floor (SDL=step-down latency) was measured. When all four of the animal's paws were resting on the floor the continuous 0.2 mA shock started and the time taken by The mouse to remount the wooden cube (EL=escape latency) was measured.
The animals with an SDL of between 3 and 30 sec and with an EL of between 3 and 60 sec were used for retesting.
Immediately afterwards, a transcorneal ECS was applied with the use of the following parameters: amperage 15 mA, frequency 50 Hz, duration of the train of pulses 0.4 sec. duration of each individual pulse 1 msec., interval between pulses 20 msec. As well as the groups treated with ECS, a control group without ECS and a control group with ECS were used.
The retest was carried out after 24 h.
The results are expressed as the percentage variation of the SDL of the treated groups in comparison with the control group by means of this formula: [formula]

[2] = Memory-enhancement activity in the passive avoidance test in the rat; type: in vivo, rat (male Wistar); conditions: for change in vivo at 0.1 mg/kg / change in vivo at 1 mg/kg / change in vivo at 10 mg/kg: 96 h, read-out: % variation vs controls (FS) in step through latency
Method: 2) Memory-enhancement activity in the "passive avoidance" test in the rat
A "passive avoidance" model was used, which required a single "step-through" situation and a retest of the "retention memory" 72 h after the training.
Male Wistar rats which weighed about 200 g and had not fasted, were used. The test consisted of evaluating the degree of memory of an animal after it had been trained as follows.
The equipment used was a shuttle box modified thus: one compartment was lined with black card including the cover, and a 60 W lamp was disposed above the other, spaced from the grid floor by about 40 cm. The two compartments were divided by an automatic guillotine-like door. Each animal was placed in the compartment in the light with the guillotine-likedoor open. From this moment, the time taken by the rat to go into the compartment lined with black card (the dark compartment) (the step-throughlatency=STL) was measured. The animals which took more than 30 sec to go into the dark were discarded. Once they had gone into the dark, the door was lowered automatically and a=0.1 mA shock lasting 5 sec (a foot shock=FS) started. After 10 sec, the animal was removed from the shuttle box.
Upon completion, the animals were selected randomly in homogeneous groups and treated with the products.
The retest to determine memory was made after 72 hours. The products were administered chronically in the preselected manner twice per day and the last treatment 30 min before the retest (6 treatments altogether).
The memory-retention test (the retest) consisted of placing each animal, treated 30 min beforehand with a physiological solution or with the product, in the compartment which was not lined with black card for 30 sec.
The results are expressed as the percentage variation of the STL (in seconds) of the groups treated in comparison with the control group by means of this formula: [formula]

[3] = Antagonism of the amnesic effect induced by scopolamine in the passive avoidance test in the rat; type: in vivo; conditions: for % Effect vs controls / Latency (STL): FS + SCOP
Method: 4) Antagonism of the amnesic effect induced by scopolamine in the "passive avoidance" test in the rat.
The shuttle box equipment was used for passive avoidance as described in Experiment 2 with the following modifications: the compounds (or physiological solutions for the control group) were administered intraperitoneally (IP) 45 min before the training, whereas scopolamine (SCOP) was administered 30 min before the training. The foot shock (FS) consisted of a 0.2 mA shock of 5 sec duration.
The retest to determine memory was executed 24 h after the training. In each individual experiment, the following groups were used: a control group (-FS), a control group (+FS), a control group (FS+SCOP), 3 treatment groups with different doses of the product under test (FS+SCOP).

[4] = Antidepressant activity in the behavioural despair test in the mouse; type: in vivo, mouse (male CD1); conditions: for inhibition in vivo at 3 mg/kg / inhibition in vivo at 10 mg/kg / inhibition in vivo at 30 mg/kg: 5 min, 5 minutes, read-out: Decrease in immobility (as %) vs the controls; for inhibition in vivo at 3 mg/kg: 3 mg/kg IP; for inhibition in vivo at 10 mg/kg: 10 mg/kg IP; for inhibition in vivo at 30 mg/kg: 30 mg/kg IP
Description: 5) Antidepressant activity in the "behavioural despair test" Another interesting aspect of the pharmacological activity of these products is the potent antidepressant activity which some of them display in an experimental model in the mouse, in which a state of depression is induced experimentally by the method of Porsolt et al. (Arch. Int. Pharmacodyn. 229, p. 327-336 (1977)). Male CDl mice which weighed about 20-25 g and had not fasted were used. The test consisted of inducing a state of depression in the animal which was subjected to forced swimming in a glass cylinder from which it could not escape. After a short period of vigorous activity the mouse adopted a characteristic posture of immobility which was easily identifiable; this immobility is reduced by antidepressant drugs. 1 l glass beakers, filled to 700 ml with water at a temperature of 25° C. were used for the test. The mice, 8 per group, were treated intraperitoneally with the drug under test, 30 minutes before the test. At time 0, each animal was immersed in a beaker and, after one minute during which all moved about swimming vigorously in order to escape, regardless of treatment, the observer, who was unaware of the treatment, assigned the following points: 0=animal immobile 1=minimum movement to remain afloat 2=vigorous swimming The greater the antidepressant activity of the drug, the more the animals will move about in order to try to escape from the water. The points were assigned every 15 sec for a total period of 5 min with a total of 20 observations. The antidepressant activity was determined with the use of various doses of the compound by the regression method as the ED50, that is, the dose in mg/kg of the compound which could antagonise the animal's immobility time by 50%.

[5] = system: excitor amino-acid receptors of cortical membranes ("forebrain") of rats; test: Inhibition of the specific binding of [3H]-glutamate to rat forebrain membranes; conditions: for IC50: rat forebrain membranes, 20 min, 37° C., pH 7.1
Description: 6) Studies on binding to rat "forebrain" membranes
L-glutamate recognizes all three receptor subtypes indicated above, al though not selectively. It is therefore desirable to evaluate the capacity of each of the compounds of the invention to interact with the excitor amino-acid receptors of the CNS.
"Forebrain", that is, the cerebral cortex and the hippocampus, were selected as the receptor tissue and ^3 H-L-glutamate as the ligand for marking this heterogenous receptor population.
Rat cerebral tissue (forebrain without striated tissue) was therefore homogeneised cold in tris buffer at pH 7.4. After washing and centrifuging, the final pellet was resuspended in 50 volumes of tris HCl binding buffer at 7.1. 0.5 ml of receptor membrane thus obtained were then incubated, together with the radioactive tracer and the compounds under test, for 20 min at 37° C. The reaction was terminated by separating the bound radio-ligand from the free radio-ligand by filteration on glass-fibre filters which, after washing, were counted in a liquid scintillator (a β-counter) thus determining the radioactivity associated with the pellet. The specific binding was determined as the difference between the binding in the absence and in the presence of cold 3.6 mM L-glutamate.

[6] = Mus musculus, po, 24 h, read-out: Reversal of the amnesia (% vs controls), as the increase in the Step Down Latency
[7] = po, 10 mg/kg OS, mouse, retest 24 h after training, read-out: Reversal of the amnesia (% vs controls), as the increase in the Step Down Latency
[8] = 0.1 mg/kg IP, rat, retest on the 4th day, 6 treatments
[9] = 1 mg/kg IP, rat, retest on the 4th day, 6 treatments
[10] = 10 mg/kg IP, rat, retest on the 4th day, 6 treatments

Q: For `Nc1c2c(nc3ccccc13)CCCC2` [Tacrine, reference compound], which change in vivo at 0.1 mg/kg [1, 6] is on record?
A: 10%

Q: And the change in vivo at 1 mg/kg [1, 6]?
A: 9%

Q: And the change in vivo at 3 mg/kg [1, 6]?
A: 20%

Q: And the change in vivo at 10 mg/kg [1, 6]?
A: 9%

Q: What about the “Antiamnesic activity (in words)” value ([1]; OS, mouse) of the same compound?
A: inactive

Q: And the change in vivo at 0.1 mg/kg ([2]; Rattus norvegicus, ip)?
A: 7%

Q: And the change in vivo at 1 mg/kg ([2]; Rattus norvegicus, ip)?
A: 6%

Q: And the change in vivo at 10 mg/kg ([2]; Rattus norvegicus, ip)?
A: 12%

Q: And the “Activity in increasing the avoidance time (in words)” value ([2]; rat, IP, retest on the 4th day)?
A: inactive

Q: And the “% Effect vs controls” value ([3]; 0.3 mg/kg IP)?
A: 0%

Q: And the “Latency (STL)” value ([3]; 0.3 mg/kg IP)?
A: 59.7 s

Q: What about the “% Effect vs controls” value ([3]; 1 mg/kg IP) of the same compound?
A: 41.1%

Q: And the “Latency (STL)” value ([3]; 1 mg/kg IP)?
A: 73.1 s

Q: And the “% Effect vs controls” value ([3]; 3 mg/kg IP)?
A: 49.2%

Q: What about the “Latency (STL)” value ([3]; 3 mg/kg IP) of the same compound?
A: 75.3 s

Q: What about the “% Effect vs controls” value ([3]; 10 mg/kg IP) of the same compound?
A: 64.8%

Q: And the “Latency (STL)” value ([3]; 10 mg/kg IP)?
A: 79.5 s

Q: What about the ED50 ([3]; Rattus norvegicus, ip, 24 h, read-out: ID50 (dose antagonizing the amnesic effect of scopolamine by 50%)) of the same compound?
A: 3.4 mg/kg

Q: Which change in vivo at 3 mg/kg ([1]; po, 3 mg/kg OS, mouse, retest 24 h after training, read-out: Reversal of the amnesia (% vs controls), as the increase in the Step Down Latency) does the source give for `N[C@@H](CCC(=O)O)C(=O)NC1CCCCCC1` [Compound 20] here?
A: 15%

Q: What about the change in vivo at 10 mg/kg [1, 7] of the same compound?
A: 41%

Q: What about the change in vivo at 30 mg/kg ([1]; po, 30 mg/kg OS, mouse, retest 24 h after training, read-out: Reversal of the amnesia (% vs controls), as the increase in the Step Down Latency) of the same compound?
A: 61%

Q: What about the ED50 ([1]; po, OS, mouse, 60 min before training, read-out: ID50 (antiamnesic activity, dose inhibiting the amnesic effect of the ECS by 50%)) of the same compound?
A: 17.3 mg/kg

Q: And the inhibition in vivo at 3 mg/kg [4]?
A: 0%

Q: What about the inhibition in vivo at 10 mg/kg [4] of the same compound?
A: 11%

Q: What about the inhibition in vivo at 30 mg/kg [4] of the same compound?
A: 52%

Q: And the ED50 ([4]; IP, read-out: ED50 (dose antagonising immobility time by 50%))?
A: 36.1 mg/kg

Q: What about the “Activity in inhibiting the binding of glutamate (in words)” value ([5]; rat cortical membranes) of the same compound?
A: considerable activity in inhibiting the binding of the glutamate

Q: What about the IC50 [5] of the same compound?
A: 14.4 µM

Q: What about the change in vivo at 0.1 mg/kg [2, 8] of the same compound?
A: 7%

Q: And the change in vivo at 1 mg/kg [2, 9]?
A: 20%

Q: What about the change in vivo at 10 mg/kg [2, 10] of the same compound?
A: 36%

Q: And the ED30 ([2]; IP, rat, read-out: ED30 (dose increasing the latency time (STL) by 30%))?
A: 4.2 mg/kg

Q: And the “Activity in increasing the avoidance time (in words)” value ([2]; rat, IP, retest on the 4th day)?
A: considerable activity in increasing the avoidance time

Q: For `N[C@H](CCC(=O)O)C(=O)NCCC12CC3CC(CC(C3)C1)C2` [Compound 17], which “Antiamnesic activity (in words)” value ([1]; OS, mouse) is on record?
A: completely inactive

Q: What about the change in vivo at 0.1 mg/kg ([1]; po, 0.1 mg/kg OS, mouse, retest 24 h after training, read-out: Reversal of the amnesia (% vs controls), as the increase in the Step Down Latency) of the same compound?
A: 0%

Q: And the change in vivo at 1 mg/kg ([1]; po, 1 mg/kg OS, mouse, retest 24 h after training, read-out: Reversal of the amnesia (% vs controls), as the increase in the Step Down Latency)?
A: 14%

Q: What about the change in vivo at 10 mg/kg [1, 7] of the same compound?
A: 10%

Q: And the inhibition in vivo at 3 mg/kg [4]?
A: 7%

Q: What about the inhibition in vivo at 10 mg/kg [4] of the same compound?
A: 12%

Q: And the inhibition in vivo at 30 mg/kg [4]?
A: 0%

Q: What about the “Antidepressant activity (in words)” value ([4]; IP) of the same compound?
A: inactive

Q: And the “ED50 (dose antagonising immobility time by 50%)” value ([4]; IP)?
A: Inactive

Q: What about the IC50 [5] of the same compound?
A: 312 µM

Q: What about the change in vivo at 0.1 mg/kg [2, 8] of the same compound?
A: 0%

Q: What about the change in vivo at 1 mg/kg [2, 9] of the same compound?
A: 0%

Q: And the change in vivo at 10 mg/kg [2, 10]?
A: 0%

Q: What about the “Activity in increasing the avoidance time (in words)” value ([2]; rat, IP, retest on the 4th day) of the same compound?
A: inactive
